Values quoted from earlier work, collected in patent US20260125371A1, “METHOD FOR INHIBITING CLOSTRIDIOIDES DIFFICILE SPORE GERMINATION” (UNIVERSITY OF NOTRE DAME DU LAC, priority 2022, published 2026).
In brackets after ≈: the same amount, converted by molar mass. Read-outs that look alike come from different tables or passages of the source.

What was measured:
K. pneumoniae ATCC700603 = details: cited from earlier work
S. pyogenes ATCC 49399 = details: cited from earlier work
E. coli ATCC25922 = details: cited from earlier work
S. oralis ATCC 9811 = details: cited from earlier work
Gram-negative bacteria = details: organisms of Table 2; data from earlier publication; cited from earlier work
E. faecium = details: cited from earlier work
[1] = test system: B. licheniformis ATCC 12759; details: cited from earlier work
C. difficile strains = details: cited from earlier work
[2] = C. difficile strains of Table 4

## Oc1ccc(-c2nc(-c3ccc(OC4CCCC4)cc3)no2)cc1 [Compound 2]
K. pneumoniae ATCC700603
  MIC: >128 µg/mL
S. pyogenes ATCC 49399
  MIC: >128 µg/mL
E. coli ATCC25922
  MIC: >128 µg/mL
S. oralis ATCC 9811
  MIC: >128 µg/mL
Gram-negative bacteria
  activity against Gram-negative organisms: no activity
E. faecium; E. faecium 106 (Van R)
  MIC: 2 µg/mL (≈ 6.2 µM)
E. faecium; E. faecium 119-39A (Van S)
  MIC: 2 µg/mL (≈ 6.2 µM)
E. faecium; E. faecium NCTC 7171
  MIC: 4 µg/mL (≈ 12.4 µM)
[1]
  MIC: 4 µg/mL (≈ 12.4 µM)
C. difficile strains; 101 C. difficile strains
  IMIC50 (101 strains): 2 µg/mL
  MIC90 (101 strains): 4 µg/mL (≈ 12.4 µM)
C. difficile strains; C. difficile 23828, resistant to FDX
  MIC: 4 µg/mL (≈ 12.4 µM)
C. difficile strains; C. difficile 24531, resistant to VAN
  MIC: 4 µg/mL (≈ 12.4 µM)
C. difficile strains; C. difficile 26675, resistant to MTZ
  MIC: 4 µg/mL (≈ 12.4 µM)
C. difficile strains; C. difficile BAA-1803
  MIC: 2 µg/mL (≈ 6.2 µM)
C. difficile strains; C. difficile BAA-1870
  MIC: 2 µg/mL (≈ 6.2 µM)
C. difficile strains; C. difficile NR49292
  MIC: 2 µg/mL (≈ 6.2 µM)
C. difficile strains; C. difficile NR49294
  MIC: 2 µg/mL (≈ 6.2 µM)
C. difficile strains; C. difficile NR49302
  MIC: 2 µg/mL (≈ 6.2 µM)
C. difficile strains; C. difficile NR49305
  MIC: 2 µg/mL (≈ 6.2 µM)
C. difficile strains; C. difficile NR49310
  MIC: 4 µg/mL (≈ 12.4 µM)
C. difficile strains; C. difficile NR49318
  MIC: 4 µg/mL (≈ 12.4 µM)
C. difficile strains; [2]
  MIC50: 2 µg/mL (≈ 6.2 µM)
  MIC90: 4 µg/mL (≈ 12.4 µM)
C. difficile strains; C. difficile, reported earlier
  MIC90: 4 µg/mL (≈ 12.4 µM)
C. difficile strains; strain ATCC43598
  MIC: 2 µg/mL (≈ 6.2 µM)
C. difficile strains; strain BAA-1801
  MIC: 2 µg/mL (≈ 6.2 µM)
C. difficile strains; strain BAA-1803
  MIC: 2 µg/mL (≈ 6.2 µM)
C. difficile strains; strain BAA-1804
  MIC: 2 µg/mL (≈ 6.2 µM)
C. difficile strains; strain BAA-1812
  MIC: 2 µg/mL (≈ 6.2 µM)
C. difficile strains; strain BAA-1814
  MIC: 2 µg/mL (≈ 6.2 µM)
C. difficile strains; strain BAA-1870
  MIC: 2 µg/mL (≈ 6.2 µM)
C. difficile strains; strain HM-88
  MIC: 4 µg/mL (≈ 12.4 µM)
C. difficile strains; strain HM-89
  MIC: 4 µg/mL (≈ 12.4 µM)
C. difficile strains; strain HM-745
  MIC: 4 µg/mL (≈ 12.4 µM)
C. difficile strains; strain HM-746
  MIC: 4 µg/mL (≈ 12.4 µM)
C. difficile strains; strain HM-747
  MIC: 4 µg/mL (≈ 12.4 µM)
C. difficile strains; strain NR49292
  MIC: 2 µg/mL (≈ 6.2 µM)
C. difficile strains; strain NR49294
  MIC: 2 µg/mL (≈ 6.2 µM)
C. difficile strains; strain NR49302
  MIC: 2 µg/mL (≈ 6.2 µM)
C. difficile strains; strain NR49305
  MIC: 2 µg/mL (≈ 6.2 µM)
C. difficile strains; strain NR49310
  MIC: 4 µg/mL (≈ 12.4 µM)
C. difficile strains; strain NR49318
  MIC: 4 µg/mL (≈ 12.4 µM)
C. difficile strains; strain NR-13427
  MIC: 2 µg/mL (≈ 6.2 µM)
C. difficile strains; strain NR-13428
  MIC: 4 µg/mL (≈ 12.4 µM)
C. difficile strains; strain NR-13429
  MIC: 4 µg/mL (≈ 12.4 µM)
C. difficile strains; strain NR-13430
  MIC: 2 µg/mL (≈ 6.2 µM)
C. difficile strains; strain NR-13431
  MIC: 2 µg/mL (≈ 6.2 µM)
C. difficile strains; strain NR-13433
  MIC: 4 µg/mL (≈ 12.4 µM)
C. difficile strains; strain NR-13434
  MIC: 2 µg/mL (≈ 6.2 µM)
C. difficile strains; strain NR-13435
  MIC: 4 µg/mL (≈ 12.4 µM)
C. difficile strains; strain NR-13436
  MIC: 4 µg/mL (≈ 12.4 µM)
C. difficile strains; strain NR-13437
  MIC: 4 µg/mL (≈ 12.4 µM)
C. difficile strains; strain NR-13438
  MIC: 2 µg/mL (≈ 6.2 µM)
C. difficile strains; strain NR-13553
  MIC: 2 µg/mL (≈ 6.2 µM)
C. difficile strains; strain NR-32882
  MIC: 2 µg/mL (≈ 6.2 µM)
C. difficile strains; strain NR-32883
  MIC: 2 µg/mL (≈ 6.2 µM)
C. difficile strains; strain NR-32884
  MIC: 2 µg/mL (≈ 6.2 µM)
C. difficile strains; strain NR-32885
  MIC: 4 µg/mL (≈ 12.4 µM)
C. difficile strains; strain NR-32886
  MIC: 2 µg/mL (≈ 6.2 µM)
C. difficile strains; strain NR-32887
  MIC: 4 µg/mL (≈ 12.4 µM)
C. difficile strains; strain NR-32888
  MIC: 4 µg/mL (≈ 12.4 µM)
C. difficile strains; strain NR-32889
  MIC: 4 µg/mL (≈ 12.4 µM)
C. difficile strains; strain NR-32890
  MIC: 2 µg/mL (≈ 6.2 µM)
